Drawing on PubChem BioAssay (NCI), this text covers GI50 and TGI for eight molecules.

Structures are written as SMILES.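 In this assay, cells in 96-well plates receive the compound at five concentrations for 48 hours. Endpoints are linearly interpolated between the surrounding concentrations. GI50: concentration for 50% inhibition of growth. Definition used: TGI = concentration required for complete inhibition of growth.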

Among the test systems are A498 renal; MCF7 breast; UACC-257 melanoma; OVCAR-3 ovarian; SF-295 CNS; HOP-92 NSCLC; NCI-H460 lung; A549 NSCLC; SF-268 CNS; SNB-19 CNS.
Assay in all cases: DTP human tumour cell line panel, 48 h

Consider `CCC(=C(c1ccc(OCCN(CC)CC)cc1)c1ccc(OCCN(CC)CC)cc1)c1ccc(Cl)cc1`, for which the GI50 with A498 renal is 0.591 µM; in the assay with MCF7 breast it was 0.347 µM; with UACC-257 melanoma it was 0.62 µM; with OVCAR-3 ovarian it was 0.577 µM; with SF-295 CNS, 0.615 µM; in the assay on HOP-92 NSCLC it was 0.5 µM. In addition, the GI50 in the assay on NCI-H460 lung is 0.619 µM; in the assay with A549 NSCLC, 0.638 µM; in the assay with SF-268 CNS, 0.604 µM; in the assay with SNB-19 CNS it was 0.584 µM. Besides, the TGI in the assay on A498 renal amounted to 1.66 µM; in the assay with MCF7 breast, 0.861 µM; in the assay on UACC-257 melanoma, 1.25 µM; in the assay on OVCAR-3 ovarian, 1.14 µM; in the assay with SF-295 CNS, 1.19 µM; in the assay with HOP-92 NSCLC, 1.18 µM. Moreover, the total growth inhibition concentration (TGI) was found to be 1.17 µM with NCI-H460 lung, 1.31 µM in the assay on A549 NSCLC, 1.23 µM with SF-268 CNS and 1.09 µM in the assay on SNB-19 CNS.
Consider `Cc1c(-c2ccc(N3CCc4cccc(C(=O)Nc5nc6ccccc6s5)c4C3)nc2C(=O)O)cnn1CC12CC3CC(CC(C3)C1)C2`, for which the GI50 with A498 renal is less than 0.01 µM; with MCF7 breast it was 10.8 µM; in the assay on UACC-257 melanoma it was 10.5 µM; in the assay on OVCAR-3 ovarian it was 6.19 µM; in the assay on SF-295 CNS, 3.53 µM; in the assay on HOP-92 NSCLC, less than 0.01 µM. The GI50 in the assay with NCI-H460 lung was 8.22 µM; in the assay on A549 NSCLC it was 4.97 µM; in the assay with SF-268 CNS, 8.05 µM; in the assay with SNB-19 CNS, 4.37 µM. The concentration for total growth inhibition (TGI) in the assay with A498 renal is less than 0.0127 µM; in the assay on MCF7 breast, 29.4 µM; in the assay on UACC-257 melanoma, 30.2 µM; in the assay on OVCAR-3 ovarian it was 20.9 µM; with SF-295 CNS, 11.6 µM; with HOP-92 NSCLC, less than 0.01 µM. Besides, the total growth inhibition concentration (TGI) in the assay on NCI-H460 lung turned out to be 24.6 µM; with A549 NSCLC, 25.3 µM; with SF-268 CNS it was 24.8 µM; with SNB-19 CNS, 19.6 µM.
As to `O=C(/C=C/N1CCN(c2cccc(Cl)c2)CC1)c1ccc(Cl)cc1`, the GI50 with A498 renal was 21.8 µM; in the assay with MCF7 breast, 29.7 µM; in the assay on UACC-257 melanoma, 23.8 µM; with OVCAR-3 ovarian, 24.1 µM; with SF-295 CNS it was 18.6 µM; with HOP-92 NSCLC, 15.1 µM. The GI50 in the assay on NCI-H460 lung is 33.6 µM; in the assay with A549 NSCLC it was 31.9 µM; in the assay with SF-268 CNS, 19.8 µM; with SNB-19 CNS it was 64.9 µM. The concentration for total growth inhibition (TGI) is 48.1 µM in the assay on A498 renal; greater than 100 µM with MCF7 breast; 63.5 µM with UACC-257 melanoma; 73.7 µM in the assay on OVCAR-3 ovarian; 54.2 µM in the assay on SF-295 CNS; 57.7 µM in the assay with HOP-92 NSCLC. Besides, the TGI in the assay with NCI-H460 lung is greater than 100 µM; in the assay on A549 NSCLC it was greater than 100 µM; with SF-268 CNS, 53.2 µM; with SNB-19 CNS, greater than 100 µM.
On to `COc1cc(COC(=O)NC(Cc2cccs2)C(=O)O)c([N+](=O)[O-])cc1OC` (stereo not drawn), for which the concentration for total growth inhibition (TGI) with A498 renal, in the assay on MCF7 breast, in the assay with UACC-257 melanoma, with OVCAR-3 ovarian, in the assay on SF-295 CNS and with HOP-92 NSCLC was greater than 100 µM each time. Besides, the total growth inhibition concentration (TGI) with NCI-H460 lung, in the assay with A549 NSCLC, in the assay on SF-268 CNS and in the assay with SNB-19 CNS was greater than 100 µM throughout.
For `Cc1cc2c(SCc3ccccc3Cl)nc(N)nc2nc1C`, the TGI with A498 renal, in the assay with MCF7 breast, in the assay on UACC-257 melanoma, in the assay on OVCAR-3 ovarian, in the assay with SF-295 CNS and in the assay on HOP-92 NSCLC was greater than 100 µM in each case. Moreover, the concentration for total growth inhibition (TGI) with NCI-H460 lung, in the assay on A549 NSCLC, in the assay with SF-268 CNS and in the assay on SNB-19 CNS was greater than 100 µM in each case.
With `N#Cc1c(N)nc(N2CCOCC2)c(C#N)c1-c1ccc(Cl)cc1Cl`, the GI50 with A498 renal is 2.68 µM; in the assay with MCF7 breast it was 8.8 µM; with UACC-257 melanoma, 18 µM; in the assay with OVCAR-3 ovarian, 13.7 µM; in the assay with SF-295 CNS it was 19 µM; in the assay with HOP-92 NSCLC, 3.35 µM. Also, the GI50 is 9.38 µM in the assay with NCI-H460 lung, 20.2 µM in the assay with A549 NSCLC, 14.2 µM in the assay on SF-268 CNS and 15.9 µM with SNB-19 CNS. The total growth inhibition concentration (TGI) in the assay on A498 renal was determined as 11.1 µM; in the assay with MCF7 breast, 36.2 µM; in the assay on UACC-257 melanoma it was 62.4 µM; in the assay on OVCAR-3 ovarian it was 41.3 µM; in the assay with SF-295 CNS, 51.8 µM; in the assay with HOP-92 NSCLC it was 26.3 µM. Further, the TGI in the assay with NCI-H460 lung was found to be 25.3 µM; with A549 NSCLC it was 54.9 µM; in the assay on SF-268 CNS, 35.6 µM; in the assay with SNB-19 CNS, 60.9 µM.
`O=C(NCc1cccnc1)c1ccc([N+](=O)[O-])o1`: the GI50 is 3.25 µM in the assay on A498 renal; 0.973 µM with MCF7 breast; 1.13 µM with UACC-257 melanoma; 1.61 µM in the assay with OVCAR-3 ovarian; 2.48 µM with SF-295 CNS; greater than 17.2 µM with HOP-92 NSCLC. For the same molecule, the GI50 with NCI-H460 lung was 1.62 µM; in the assay on A549 NSCLC, 2.54 µM; in the assay with SF-268 CNS it was 4.83 µM; in the assay with SNB-19 CNS it was 2.89 µM. The TGI came to 9.02 µM with A498 renal; 5.21 µM in the assay with MCF7 breast; 5.03 µM with UACC-257 melanoma; 6.89 µM in the assay with OVCAR-3 ovarian; 7.14 µM with SF-295 CNS; 32.2 µM in the assay on HOP-92 NSCLC. Further, the TGI was 3.73 µM in the assay with NCI-H460 lung, 7.28 µM in the assay on A549 NSCLC, greater than 22.1 µM in the assay on SF-268 CNS and 8.26 µM in the assay on SNB-19 CNS.
Take `Nc1ccc(N)c2c1C(=O)c1cccc([N+](=O)[O-])c1C2=O`: the GI50 is 0.125 µM with A498 renal; 0.32 µM in the assay with MCF7 breast; 0.784 µM in the assay with UACC-257 melanoma; 5.19 µM in the assay on OVCAR-3 ovarian; 0.776 µM in the assay with SF-295 CNS; 16.3 µM with HOP-92 NSCLC. Besides, the GI50 in the assay with NCI-H460 lung was 0.206 µM; in the assay on A549 NSCLC, 1.47 µM; in the assay with SF-268 CNS, 5.07 µM; in the assay on SNB-19 CNS it was 2.4 µM. The total growth inhibition concentration (TGI) is 1.03 µM in the assay with A498 renal; 18 µM with MCF7 breast; greater than 100 µM in the assay with OVCAR-3 ovarian; greater than 100 µM in the assay with SF-295 CNS; greater than 100 µM in the assay on HOP-92 NSCLC; 1.27 µM with NCI-H460 lung. Also, the results for the TGI with SF-268 CNS and in the assay on SNB-19 CNS were greater than 89.4 µM and greater than 30.4 µM, respectively.
